Assay results reported in patent US7632844B2, “2-hydroxy-6-phenylphenanthridines as PDE-4 inhibitors” (Nycomed GmbH, priority 2002, dated 2009).

Assays:
[1] = tested on: PDE4 (cytosol from human neutrophils); assay: Inhibition of PDE4 activity, Method a ([3H]cAMP hydrolysis, cytosol from human neutrophils); format: biochemical; set-up: unit not given here; conditions: 0.5 μM cAMP, Motapizone 1 μM
Description: PDE4 activity was determined as described by Thompson et al. (Adv Cycl Nucl Res 10: 69-92, 1979) with some modifications (Bauer and Schwabe, Naunyn-Schmiedeberg's Arch Pharmacol 311: 193-198, 1980). At a final assay volume of 200 μl (96 well microtiter plates) the assay mixture contained 20 mM Tris (pH 7.4), 5 mM MgCl2, 0.5 μM cAMP, [^3H]cAMP (about 30,000 cpm/assay), the test compound and an aliquot of cytosol from human neutrophils which mainly contains PDE4 activity as described by Schudt et al. (Naunyn-Schmiedeberg's Arch Pharmacol 344: 682-690, 1991); the PDE3-specific inhibitor Motapizone (1 μM) was included to suppress PDE3 activity originating from contaminating platelets. Serial dilutions of the compounds were prepared in DMSO and further diluted 1:100 (v/v) in the assays to obtain the desired final concentrations of the inhibitors at a DMSO concentration of 1% (v/v) which by itself only slightly affected PDE4 activity.
After preincubation for 5 min at 37° C., the reaction was started by the addition of substrate (cAMP) and the assays were incubated for further 15 min at 37° C. 50 μl of 0.2 N HCl was added to stop the reaction and the assays were left on ice for about 10 min. Following incubation with 25 μg 5′-nucleotidase (Crotalus atrox snake venom) for 10 min at 37° C., the assays were loaded on QAE Sephadex A-25 (1 ml bed volume). The columns were eluted with 2 ml of 30 mM ammonium formiate (pH 6.0) and the eluate was counted for radioactivity. Results were corrected for blank values (measured in the presence of denatured protein) which were below 5% of total radioactivity. […] The IC50-values for the compounds according to the invention for the inhibition of the PDE4 activity were determined from the concentration-inhibition curves by nonlinear-regression.

COc1cc2c(cc1OC)C1CC(OC(C)=O)CCC1N=C2c1ccc([N+](=O)[O-])cc1 (racemic) [Compound 5, (±)-Acetic acid (2RS,4aRS,10bRS)-6-(4-nitrophenyl)-8,9-dimethoxy-(1,2,3,4,4a,10b)-hexahydrophenanthridin-2-yl ester]
Inhibition of the PDE4 activity, −log IC50 [1]: 7.09 | melting point: 77 to 88 °C

COc1cc2c(cc1OC)C1CC(OC(C)=O)CCC1N=C2c1ccc(OCC2CC2)c(OCC2CC2)c1 (racemic) [Compound 6, (±)-Acetic acid (2SR,4aRS,10bRS)-6-(3,4-bis-cyclopropylmethoxyphenyl)-8,9-dimethoxy-(1,2,3,4,4a,10b)-hexahydrophenanthridin-2-yl ester]
Inhibition of the PDE4 activity, −log IC50 [1]: 7.26

COc1cc2c(cc1OC)C1CC(O)CCC1N=C2c1ccc(OCC2CC2)c(OCC2CC2)c1 (racemic) [Compound 7, (±)-(2RS,4aRS,10bRS)-6-(3,4-Bis-cyclopropylmethoxyphenyl)-8,9-dimethoxy-(1,2,3,4,4a,10b)-hexahydrophenanthridin-2-ol]
Inhibition of the PDE4 activity, −log IC50 [1]: 8.98 | melting point: 83 to 92 °C

COC(=O)c1ccc(C2=NC3CCC(O)CC3c3cc(OC)c(OC)cc32)cc1 (racemic) [Compound 8, (±)-(2RS,4aRS,10bRS)-6-(4-Methoxycarbonylphenyl)-8,9-dimethoxy-(1,2,3,4,4a,10b)-hexahydrophenanthridin-2-ol]
Inhibition of the PDE4 activity, −log IC50 [1]: 9.21 | melting point: 94 to 105 °C

COc1cc2c(cc1OC)C1CC(O)CCC1N=C2c1ccc(N(C)C)cc1 (racemic) [Compound 9, (±)-(2RS,4aRS,10bRS)-6-(4-Dimethylaminophenyl)-8,9-dimethoxy-(1,2,3,4,4a,10b)-hexahydrophenanthridin-2-ol]
Inhibition of the PDE4 activity, −log IC50 [1]: 7.13 | melting point: 115 to 121 °C

COc1ccc(C2=NC3CCC(O)CC3c3cc(OC)c(OC)cc32)cc1OC (racemic) [Compound 10, (±)-(2RS,4aRS,10bRS)-6-(3,4-Dimethoxyphenyl)-8,9-dimethoxy-(1,2,3,4,4a,10b)-hexahydrophenanthridin-2-ol]
Inhibition of the PDE4 activity, −log IC50 [1]: 8.71 | melting point: 104 to 110 °C

COc1cc2c(cc1OC)C1CC(O)CCC1N=C2c1ccc([N+](=O)[O-])cc1 (racemic) [Compound 11, (±)-(2RS,4aRS, 10bRS)-6-(4-Nitrophenyl)-8,9-dimethoxy-(1,2,3,4,4a,10b)-hexahydrophenanthridin-2-ol]
Inhibition of the PDE4 activity, −log IC50 [1]: 9.11 | melting point: 178 to 181 °C

COc1cc2c(cc1OC)C1CC(O)CCC1N=C2c1ccc(C(=O)O)cc1 (racemic) [Compound 12, (±)-(2RS,4aRS,10bRS)-6-(4-Carboxyphenyl)-8,9-dimethoxy-(1,2,3,4,4a,10b)-hexahydro-phenanthridin-2-ol]
Inhibition of the PDE4 activity, −log IC50 [1]: 8.25 | melting point: 172 to 183 °C

COc1cc2c(cc1OC)C1CC(O)CCC1N=C2c1ccc(OCC2CC2)c(OCC2CC2)c1 (racemic) [Compound 13, (±)-(2SR,4aRS, 10bRS)-6-(3,4-Bis-cyclopropylmethoxyphenyl)-8,9-dimethoxy-(1,2,3,4,4a,10b)-hexahydrophenanthridin-2-ol]
Inhibition of the PDE4 activity, −log IC50 [1]: 8.12 | melting point: 114 to 118 °C
